Earlier results on two compounds are cited in US9468638B2, “Itraconazole formulations” (Texas Southern University, priority 2010, dated 2016).

Converted amounts (≈) assume the structure as drawn. Like-named read-outs stand apart in the source and are kept apart here.

The conditions of data set [1]: pH=8.1.
Test in data set [2]: not given
The source holds these as a separate data set.

For data set [3] the following is noted: human, in vivo, iv.
For data set [4] the following is noted: rat, in vivo.
For data set [5] the following is noted: in vivo, iv.

On to `CCC(C)n1ncn(-c2ccc(N3CCN(c4ccc(OCC5COC(Cn6cncn6)(c6ccc(Cl)cc6Cl)O5)cc4)CC3)cc2)c1=O` (centres unmarked) [Itraconazole], for which the water solubility entry is, setting by setting: (neutral pH) “about 1 ng/mL”; (pH=1) “approximately 4 mcg/mL”. In addition, the “n-octanol/water partition coefficient log Po/w” value in data set [1] was 5.66. Also, the “solubility in PEG 400” value in data set [2] (PEG 400) is listed as 2.14 mg/mL (≈ 3030 µM). The “solubility in Tween 20” value in data set [2] (Tween 20) is reported as 1.19 mg/mL (≈ 1690 µM).

For hydroxylpropyl-β-cyclodextrin, in data set [3], the “reduced clearance of hydroxylpropyl-β-cyclodextrin” value is 6 fold. The carcinogenicity finding entry in data set [4] is “produced pancreatic adenocarcinomas”. Further, the “toxicity that led to discontinuation of Sporanox I.V. Injection” value in data set [5] is reported as “renal toxicity”.
